Results on 16 molecules are retold here after patent EP3708565A1, “PYRIMIDINYLOXYPHENYLAMIDINES AND THE USE THEREOF AS FUNGICIDES” (Bayer AG, priority 2020, dated 2020).

The test system of one data set is Phakospora pachyrhizi. The data set is described as follows: in vivo preventive test on Phakospora pachyrhizi (soybean rust). To be noted: Glycine max, 288 h; 500 ppm of active ingredient; young soybean plants sprayed, inoculated after 24 hours, evaluated 12 days after the inoculation; read-out: efficacy. How it is done:
Example: in vivo preventive test on Phakospora pachyrhizi (soybean rust)
(§1) The active ingredients were made soluble and homogenized in a mixture of Dimethyl sulfoxide/Acetone/ /Tween® 80 and then diluted in water to the desired concentration.
The young plants of soybean were treated by spraying the active ingredient prepared as described above. Control plants were treated only with an aqueous solution of Acetone/Dimethyl sulfoxide/ […].
After 24 hours, the plants were contaminated by spraying the leaves with an aqueous suspension of Phakosporapachyrhizi spores. The contaminated soybean plants were incubated for 24 hours at 24°C and at 100% relative humidity and then for 11 days at 24°C and at 70-80% relative humidity.
The test was evaluated 12 days after the inoculation. 0% means an efficacy which corresponds to that of the control plants while an efficacy of 100% means that no disease was observed.

For the next data set, the system named is Sphaerotheca fuliginea. In words: in vivo preventive test on Sphaerotheca fuliginea (powdery mildew on cucurbits). To be noted: Podosphaera fuliginea, 192 h; 500 ppm of active ingredient; young gherkin plants sprayed, inoculated after 24 hours, evaluated 8 days after the inoculation; read-out: efficacy. How it is done: Example: in vivo preventive test on Sphaerotheca fuliginea (powdery mildew on cucurbits)
as §1
The young plants of gherkin were treated by spraying the active ingredient prepared as described above. Control plants were treated only with an aqueous solution of Acetone/Dimethyl sulfoxide/ […].
After 24 hours, the plants were contaminated by spraying the leaves with an aqueous suspension of Sphaerotheca fuliginea spores. The contaminated gherkin plants were incubated for 8 days at 20°C and at 70-80% relative humidity.
The test was evaluated 8 days after the inoculation. 0% means an efficacy which corresponds to that of the control plants while an efficacy of 100% means that no disease was observed.

The next data set concerns Puccinia recondita. In words: in vivo preventive test on Puccinia recondita (brown rust on wheat). The settings on record: Puccinia recondita, 264 h; 500 ppm of active ingredient; young wheat plants sprayed, inoculated after 24 hours, evaluated 11 days after the inoculation; read-out: efficacy. The procedure: Example: in vivo preventive test on Puccinia recondita (brown rust on wheat)
as §1
The young plants of wheat were treated by spraying the active ingredient prepared as described above. Control plants were treated only with an aqueous solution of Acetone/Dimethyl sulfoxide/ Tween® 80.
After 24 hours, the plants were contaminated by spraying the leaves with an aqueous suspension of Puccinia recondita spores. The contaminated wheat plants were incubated for 24 hours at 20°C and at 100% relative humidity and then for 10 days at 20°C and at 70-80% relative humidity.
The test was evaluated 11 days after the inoculation. 0% means an efficacy which corresponds to that of the control plants while an efficacy of 100% means that no disease was observed.

Data set [1] can be described thus: LogP measurement by HPLC on reversed phase columns (EEC directive 79/831 Annex V.A8). In kind it is physicochemical. The settings on record: reversed phase HPLC column. How it is done:
If more than one LogP value is available within the same method, all the values are given and separated by "+".
Lambda-max-values were determined using UV-spectra from 200 nm to 400 nm and the peak values of the chromatographic signals.

[2] abbreviates: method [a]: LC-UV, acidic range, 0.1% formic acid in water and acetonitrile as eluent.
The mark [3] stands for this setting: method [b]: LC-UV, neutral range, 0.001 molar ammonium acetate solution in water and acetonitrile as eluent.

As a reminder, the chromatographic logP is lipophilicity estimated from chromatographic retention. Read a low chromatographic logP as lower lipophilicity. Regarding `CCN(C)C=Nc1cc(C)c(Oc2ccnc(Sc3cccc(F)c3)n2)cc1C` [I.009, N-ethyl-N'-[4-[2-(3-fluorophenyl)sulfanylpyrimidin-4-yl]oxy-2,5-dimethylphenyl]-N-methyl-methanimidamide], the pest or weed control at 500 ppm with Phakospora pachyrhizi, with Sphaerotheca fuliginea and in the data set on Puccinia recondita was ≥ 70% each time. In addition, in data set [1] (setting [2]), the chromatographic logP stood at 1.66.
Take `CCN(C)C=Nc1cc(C)c(Oc2ccnc(Sc3ccc(F)cc3)n2)cc1C` [I.010, N-ethyl-N'-[4-[2-(4-fluorophenyl)sulfanylpyrimidin-4-yl]oxy-2,5-dimethylphenyl]-N-methyl-methanimidamide]: the pest or weed control at 500 ppm in the data set on Phakospora pachyrhizi, in the data set on Sphaerotheca fuliginea and with Puccinia recondita was ≥ 70% throughout. In data set [1] (setting [2]), this molecule registered a chromatographic logP of 1.6.
As for `CCN(C)C=Nc1cc(C)c(Oc2ccnc(SC3CCCCC3)n2)cc1C` [I.011, N'-[4-(2-cyclohexylsulfanylpyrimidin-4-yl)oxy-2,5-dimethylphenyl]-N-ethyl-N-methylmethan-imidamide], the pest or weed control at 500 ppm in the data set with Phakospora pachyrhizi, with Sphaerotheca fuliginea and with Puccinia recondita was ≥ 70% throughout. Moreover, in data set [1] (setting [2]), the chromatographic logP came to 1.86.
On to `CCN(C)C=Nc1cc(C)c(Oc2ccnc(SC3CCCC3)n2)cc1C` [I.012, N'-[4-(2-cyclopentylsulfanylpyrimidin-4-yl)oxy-2,5-dimethylphenyl]-N-ethyl-N-methylmethan-imidamide], for which the pest or weed control at 500 ppm in the data set on Phakospora pachyrhizi, with Sphaerotheca fuliginea and with Puccinia recondita was ≥ 70% each time. For the same molecule, the chromatographic logP in data set [1] (setting [2]) turned out to be 1.75.
Consider `CCN(C)C=Nc1cc(C)c(Oc2ccnc(SCCC(F)(F)F)n2)cc1C` [I.013, N'-[2,5-dimethyl-4-[2-(3,3,3-trifluoropropylsulfanyl)pyrimidin-4-yl]oxyphenyl]-N-ethyl-N-methylmethanimidamide], for which the pest or weed control at 500 ppm in the data set on Phakospora pachyrhizi, in the data set with Sphaerotheca fuliginea and in the data set with Puccinia recondita was ≥ 70% each time. The same molecule registered a chromatographic logP in data set [1] (setting [2]) of 1.58.
Take `CCN(C)C=Nc1cc(Br)c(Oc2ccnc(SC(C)C)n2)cc1C` [I.014, N'-[5-bromo-2-methyl-4-(2-propan-2-ylsulfanylpyrimidin-4-yl)oxyphenyl]-N-ethyl-N-methyl-methanimidamide]: the pest or weed control at 500 ppm with Phakospora pachyrhizi, in the data set on Sphaerotheca fuliginea and with Puccinia recondita was ≥ 70% each time. The chromatographic logP came out at 1.6 in data set [1] (setting [2]) and 4.78 in data set [1] (setting [3]).
As for `CCCSc1nccc(Oc2cc(C)c(N=CN(C)CC)cc2Br)n1` [I.015, N'-[5-bromo-2-methyl-4-(2-propylsulfanylpyrimidin-4-yl)oxyphenyl]-N-ethyl-N-methylmethan-imidamide], the pest or weed control at 500 ppm with Phakospora pachyrhizi, in the data set on Sphaerotheca fuliginea and in the data set on Puccinia recondita was ≥ 70% throughout. In addition, the chromatographic logP turned out to be 1.66 in data set [1] (setting [2]) and 4.86 in data set [1] (setting [3]).
Take `CCSc1nccc(Oc2cc(C)c(N=CN(C)CC)cc2Br)n1` [I.016, N'-[5-bromo-4-(2-ethylsulfanylpyrimidin-4-yl)oxy-2-methylphenyl]-N-ethyl-N-methylmethan-imidamide]: the pest or weed control at 500 ppm with Phakospora pachyrhizi, in the data set on Sphaerotheca fuliginea and in the data set on Puccinia recondita was ≥ 70% each time. Further, the chromatographic logP in data set [1] (setting [2]) worked out at 1.46; in data set [1] (setting [3]), 4.44.
With `CCN(C)C=Nc1cc(Br)c(Oc2ccnc(C(F)(F)F)n2)cc1C` [I.017, N'-[5-bromo-2-methyl-4-[2-(trifluoromethyl)pyrimidin-4-yl]oxyphenyl]-N-ethyl-N-methyl-methanimidamide], the pest or weed control at 500 ppm in the data set on Phakospora pachyrhizi, in the data set on Sphaerotheca fuliginea and in the data set on Puccinia recondita was ≥ 70% throughout. The results for the chromatographic logP in data set [1] (setting [2]) and in data set [1] (setting [3]) were 1.32 and 4.08, respectively.
Consider `CCN(C)C=Nc1cc(Br)c(Oc2cc(SC(C)(C)C)nc(C)n2)cc1C` [I.018, N'-[5-bromo-4-(6-tert-butylsulfanyl-2-methylpyrimidin-4-yl)oxy-2-methylphenyl]-N-ethyl-N-methylmethanimidamide], for which the pest or weed control at 500 ppm in the data set on Phakospora pachyrhizi, with Sphaerotheca fuliginea and in the data set with Puccinia recondita was ≥ 70% in each case. Further, the values for the chromatographic logP in data set [1] (setting [2]) and in data set [1] (setting [3]) were 2.11 and 5.99, respectively.
Regarding `CCSc1nc(C)cc(Oc2cc(C)c(N=CN(C)CC)cc2C)n1` [I.019, N-ethyl-N'-[4-(2-ethylsulfanyl-6-methylpyrimidin-4-yl)oxy-2,5-dimethylphenyl]-N-methyl-methanimidamide], the pest or weed control at 500 ppm with Phakospora pachyrhizi, in the data set with Sphaerotheca fuliginea and with Puccinia recondita was ≥ 70% each time. The chromatographic logP in data set [1] (setting [2]) was 1.52.
As for `CCCSc1nc(C)cc(Oc2cc(C)c(N=CN(C)CC)cc2C)n1` [I.020, N'-[2,5-dimethyl-4-(6-methyl-2-propylsulfanylpyrimidin-4-yl)oxyphenyl]-N-ethyl-N-methyl-methanimidamide], the pest or weed control at 500 ppm in the data set on Phakospora pachyrhizi, with Sphaerotheca fuliginea and with Puccinia recondita was ≥ 70% each time. Further, in data set [1] (setting [2]), the chromatographic logP was 1.69.
Regarding `CCN(C)C=Nc1cc(C)c(Oc2cc(C)nc(SCC(C)C)n2)cc1C` [I.021, N'-[2,5-dimethyl-4-[6-methyl-2-(2-methylpropylsulfanyl)pyrimidin-4-yl]oxyphenyl]-N-ethyl-N-methylmethanimidamide], the pest or weed control at 500 ppm in the data set with Phakospora pachyrhizi, in the data set with Sphaerotheca fuliginea and in the data set with Puccinia recondita was ≥ 70% each time. The chromatographic logP in data set [1] (setting [2]) turned out to be 1.84.
Regarding `CCN(C)C=Nc1cc(C)c(Oc2cc(C)nc(SC(C)C)n2)cc1C` [I.022, N'-[2,5-dimethyl-4-(6-methyl-2-propan-2-ylsulfanylpyrimidin-4-yl)oxyphenyl]-N-ethyl-N-methylmethanimidamide], the pest or weed control at 500 ppm in the data set with Phakospora pachyrhizi, in the data set on Sphaerotheca fuliginea and with Puccinia recondita was ≥ 70% each time. Further, the chromatographic logP in data set [1] (setting [2]) turned out to be 1.69.
`CCN(C)C=Nc1cc(C)c(Oc2cc(SC(C)(C)C)nc(C)n2)cc1C` [I.023, N'-[4-(6-tert-butylsulfanyl-2-methylpyrimidin-4-yl)oxy-2,5-dimethylphenyl]-N-ethyl-N-methyl-methanimidamide]: the pest or weed control at 500 ppm in the data set on Phakospora pachyrhizi, with Sphaerotheca fuliginea and in the data set on Puccinia recondita was ≥ 70% in each case. The molecule further came in with a chromatographic logP in data set [1] (setting [2]) of 1.99.
With `CCC(C)Sc1cc(Oc2cc(C)c(N=CN(C)CC)cc2C)nc(C)n1` (stereo not shown) [I.024, N'-[4-(6-butan-2-ylsulfanyl-2-methylpyrimidin-4-yl)oxy-2,5-dimethylphenyl]-N-ethyl-N-methyl-methanimidamide], the pest or weed control at 500 ppm in the data set with Phakospora pachyrhizi, with Sphaerotheca fuliginea and in the data set with Puccinia recondita was ≥ 70% throughout. For the same molecule, the values for the chromatographic logP in data set [1] (setting [2]) and in data set [1] (setting [3]) were 2.02 and 5.98, respectively.
